Measured values from patent US20090263780A1, “Organ preservation fluid” (priority 2008, published 2009).

Test system: Cortical neurons cultures
Assay: Neuron viability (MTT reduction test) after anoxic insult
Format: cell-based, Sprague-Dawley rats
Description: Neuron culture: Cortical neurons cultures were prepared from fetal Sprague-Dawley rats at 17-day gestation. Timed pregnant Sprague-Dawley rats were euthanized with isoflorane. After dissection of the cortical region of the fetal brain, cortical neurons were dispersed by trituration, centrifuged at 250 g for 5 minutes at 4° C., and suspended in a neurobasal medium supplemented with 25 μmol/L glutamic acid, 0.5 mmol/L glutamine, 1% antibiotic-antimycotic solution, and 2% B27 supplement. Cells were plated at 5×10^5 cells/ml on poly-L-lysine-coated 24-well plates. Cytosine (10 μmol/) was added at day 3. Neuron cultures were fed every 4 days with replacement of half of neurobasal medium containing 0.5 mmol/L glutamine, 1% antibiotic-antimycotic solution, and 2% B27 supplement. The culture plates were incubated at 37° C. in a humid atmosphere with 5% CO2. […]
Validation of neurons' survival: Neuronal viability was quantitatively evaluated by a methyl thiazole tetrazolium (MTT) reduction test. This quantifies the formation of a dark blue formazan product formed by the reduction of the tetrazolium ring of MTT by the mitochondrial succinate dehydrogenase in living cells. […] Cell viability corresponded to the value of the optical density read at 570 nm with background subtraction at 630 nm. Results were expressed as percent of the optical density measured in normal control cells.

## B: 2 wt % albumin (native bovine serum albumin, molecular weight 68 kDa, pI 4.8) + ACSF
ACSF supplemented with the polypeptide, anoxic environment, comparison
  Neuronal viability after anoxia, result in words: significantly increased neuronal viability
Anoxia 60 mins at 37° C., culture media replaced by 2 wt % test polypeptide + ACSF, MTT 24 hours after anoxia, percent of optical density in normal control cells
  Neuron's viability (Percentage, Mean ± SD): 96 ± 3.9 Percentage
